Results: patent US11229623B2 (GlaxoSmithKline Intellectual Property (No.2) Limited, priority 2016, dated 2022)

biological target: T1, human TRPV4 (Homo sapiens, UniProt Q9HBA0); assay: FLIPR assay for hTRPV4 expressed in BHK cells: inhibition of Agonist Compound-induced calcium signal; format: cell-based; conditions: hTRPV4 in BHK/AC9 cells, FLIPR calcium signal, agonist at EC80; reported as range class; read-out: IC50
T1 construct: expressed in transfected cells; host or cells: BHK/AC9 cells transduced with BacMam virus
Summary of the method: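 BHK/AC9 cells transduced with BacMam human TRPV4 (MOI 78), plated 15,000 per well and cultured 24 h at 37° C. Loaded with 2 μM Fluo-4 AM plus 500 μM Brilliant Black in HBSS for 1-1.5 h at room temperature in the dark; intracellular calcium signal read by FLIPR fluorescence.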

T1 sequence (Q9HBA0 whole entry): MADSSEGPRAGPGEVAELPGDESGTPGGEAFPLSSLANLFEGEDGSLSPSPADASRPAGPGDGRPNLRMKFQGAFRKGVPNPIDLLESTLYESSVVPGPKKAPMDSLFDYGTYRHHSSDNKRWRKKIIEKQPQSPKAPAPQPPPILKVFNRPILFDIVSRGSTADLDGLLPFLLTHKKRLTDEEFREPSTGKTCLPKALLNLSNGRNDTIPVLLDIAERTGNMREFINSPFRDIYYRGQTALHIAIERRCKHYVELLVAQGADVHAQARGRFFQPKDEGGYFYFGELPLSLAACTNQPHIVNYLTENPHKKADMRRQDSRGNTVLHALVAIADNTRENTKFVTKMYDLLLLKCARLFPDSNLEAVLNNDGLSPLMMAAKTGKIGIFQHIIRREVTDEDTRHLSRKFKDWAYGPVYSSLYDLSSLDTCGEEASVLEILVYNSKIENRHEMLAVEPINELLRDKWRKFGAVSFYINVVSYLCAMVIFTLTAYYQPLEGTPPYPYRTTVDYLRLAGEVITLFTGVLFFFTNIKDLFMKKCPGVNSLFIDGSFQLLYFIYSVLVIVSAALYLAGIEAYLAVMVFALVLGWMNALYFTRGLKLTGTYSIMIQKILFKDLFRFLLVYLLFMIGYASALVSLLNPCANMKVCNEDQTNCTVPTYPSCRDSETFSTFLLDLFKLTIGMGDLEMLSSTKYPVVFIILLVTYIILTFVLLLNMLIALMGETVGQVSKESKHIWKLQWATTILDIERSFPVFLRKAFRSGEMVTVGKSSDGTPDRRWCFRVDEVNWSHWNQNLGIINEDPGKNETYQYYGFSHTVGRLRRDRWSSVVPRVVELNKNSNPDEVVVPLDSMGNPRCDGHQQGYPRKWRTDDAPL

Row | SMILES | IC50
1 | N#Cc1ccc(S(=O)(=O)N2C[C@H](Oc3ccc(Cl)cc3)[C@](O)(CO)C2)c(Cl)c1 [Example 106, 3-chloro-4-(((3R,4S)-4-(4-chlorophenoxy)-3-hydroxy-3-(hydroxymethyl)pyrrolidin-1-yl)sulfonyl)benzonitrile] | 0.1 to 10 nM
2 | N#Cc1ccccc1S(=O)(=O)N1C[C@H](Oc2ccc(Cl)cc2)[C@](O)(CO)C1 [Example 107, 2-(((3R,4S)-4-(4-chlorophenoxy)-3-hydroxy-3-(hydroxymethyl)pyrrolidin-1-yl)sulfonyl)benzonitrile] | 10 to 100 nM
3 | N#Cc1ccc(S(=O)(=O)N2C[C@H](Oc3ccc(Cl)cc3)[C@](O)(CO)C2)c(Br)c1 [Example 108, 3-bromo-4-(((3R,4S)-4-(4-chlorophenoxy)-3-hydroxy-3-(hydroxymethyl)pyrrolidin-1-yl)sulfonyl)benzonitrile] | 0.1 to 10 nM
4 | N#Cc1ccc(S(=O)(=O)N2C[C@H](Oc3ccc(Cl)cc3)[C@](O)(CO)C2)cn1 [Example 109, 5-(((3R,4S)-4-(4-chlorophenoxy)-3-hydroxy-3-(hydroxymethyl)pyrrolidin-1-yl)sulfonyl)picolinonitrile] | 10 to 100 nM
5 | N#Cc1ncccc1S(=O)(=O)N1C[C@H](Oc2ccc(Cl)cc2)[C@](O)(CO)C1 [Example 110, 3-(((3R,4S)-4-(4-chlorophenoxy)-3-hydroxy-3-(hydroxymethyl)pyrrolidin-1-yl)sulfonyl)picolinonitrile] | 10 to 100 nM
6 | N#Cc1ccc(O[C@H]2CN(S(=O)(=O)c3ccc(CC(F)(F)F)cc3)C[C@@]2(O)CO)cc1F [Example 111, 2-fluoro-4-(((3S,4R)-4-hydroxy-4-(hydroxymethyl)-1-((4-(2,2,2-trifluoroethyl)phenyl)sulfonyl)pyrrolidin-3-yl)oxy)benzonitrile] | 10 to 100 nM
7 | N#Cc1ccc(O[C@H]2CN(S(=O)(=O)c3ccc(C(F)(F)F)s3)C[C@@]2(O)CO)cc1F [Example 112, 2-fluoro-4-(((3S,4R)-4-hydroxy-4-(hydroxymethyl)-1-((5-(trifluoromethyl)thiophen-2-yl)sulfonyl)pyrrolidin-3-yl)oxy)benzonitrile] | 10 to 100 nM
8 | N#Cc1ccc(S(=O)(=O)N2C[C@H](Oc3ccc(C#N)c(F)c3)[C@](O)(CO)C2)c(F)c1 [Example 113, 4-(((3S,4R)-1-((4-cyano-2-fluorophenyl)sulfonyl)-4-hydroxy-4-(hydroxymethyl)pyrrolidin-3-yl)oxy)-2-fluorobenzonitrile] | 0.1 to 10 nM
9 | N#Cc1ccc(O[C@H]2CN(S(=O)(=O)c3ccc(I)cc3C#N)C[C@@]2(O)CO)cc1F [Example 114, 4-(((3S,4R)-1-((2-cyano-4-iodophenyl)sulfonyl)-4-hydroxy-4-(hydroxymethyl)pyrrolidin-3-yl)oxy)-2-fluorobenzonitrile] | 0.1 to 10 nM
10 | N#Cc1ccc(O[C@H]2CN(S(=O)(=O)c3ccc(I)cc3Cl)C[C@@]2(O)CO)cc1F [Example 115, 4-(((3S,4R)-1-((2-chloro-4-iodophenyl)sulfonyl)-4-hydroxy-4-(hydroxymethyl)pyrrolidin-3-yl)oxy)-2-fluorobenzonitrile] | 0.1 to 10 nM
11 | N#Cc1ccc(O[C@H]2CN(S(=O)(=O)c3ccc(C(F)(F)F)c(F)c3)C[C@@]2(O)CO)cc1F [Example 116, 2-fluoro-4-(((3S,4R)-1-((3-fluoro-4-(trifluoromethyl)phenyl)sulfonyl)-4-hydroxy-4-(hydroxymethyl)pyrrolidin-3-yl)oxy)benzonitrile] | 10 to 100 nM
12 | N#Cc1ccc(O[C@H]2CN(S(=O)(=O)c3ccccc3Br)C[C@@]2(O)CO)cc1F [Example 117, 4-(((3S,4R)-1-((2-bromophenyl)sulfonyl)-4-hydroxy-4-(hydroxymethyl)pyrrolidin-3-yl)oxy)-2-fluorobenzonitrile] | 10 to 100 nM
13 | Cc1ccc(S(=O)(=O)N2C[C@H](Oc3ccc(C#N)c(F)c3)[C@](O)(CO)C2)cc1F [Example 118, 2-fluoro-4-(((3S,4R)-1-((3-fluoro-4-methylphenyl)sulfonyl)-4-hydroxy-4-(hydroxymethyl)pyrrolidin-3-yl)oxy)benzonitrile] | 10 to 100 nM
14 | N#Cc1ccc(O[C@H]2CN(S(=O)(=O)c3ccccc3I)C[C@@]2(O)CO)cc1F [Example 119, 2-fluoro-4-(((3S,4R)-4-hydroxy-4-(hydroxymethyl)-1-((2-iodophenyl)sulfonyl)pyrrolidin-3-yl)oxy)benzonitrile] | 0.1 to 10 nM
15 | N#Cc1ccc(O[C@H]2CN(S(=O)(=O)c3ccc(Cl)cc3Br)C[C@@]2(O)CO)cc1F [Example 120, 4-(((3S,4R)-1-((2-bromo-4-chlorophenyl)sulfonyl)-4-hydroxy-4-(hydroxymethyl)pyrrolidin-3-yl)oxy)-2-fluorobenzonitrile] | 0.1 to 10 nM
16 | N#Cc1ccc(O[C@H]2CN(S(=O)(=O)c3ccc(Br)cc3C(F)(F)F)C[C@@]2(O)CO)cc1F [Example 121, 4-(((3S,4R)-1-((4-bromo-2-(trifluoromethyl)phenyl)sulfonyl)-4-hydroxy-4-(hydroxymethyl)pyrrolidin-3-yl)oxy)-2-fluorobenzonitrile] | 10 to 100 nM
17 | N#Cc1ccc(O[C@H]2CN(S(=O)(=O)c3cccnc3OC(F)F)C[C@@]2(O)CO)cc1F [Example 122, 4-(((3S,4R)-1-((2-(difluoromethoxy)pyridin-3-yl)sulfonyl)-4-hydroxy-4-(hydroxymethyl)pyrrolidin-3-yl)oxy)-2-fluorobenzonitrile] | 0.1 to 10 nM
18 | Cn1ncc(Br)c1S(=O)(=O)N1C[C@H](Oc2ccc(C#N)c(F)c2)[C@](O)(CO)C1 [Example 123, 4-(((3S,4R)-1-((4-bromo-1-methyl-1H-pyrazol-5-yl)sulfonyl)-4-hydroxy-4-(hydroxymethyl)pyrrolidin-3-yl)oxy)-2-fluorobenzonitrile] | 10 to 100 nM
19 | Cc1nn(C)c(S(=O)(=O)N2C[C@H](Oc3ccc(C#N)c(F)c3)[C@](O)(CO)C2)c1Cl [Example 124, 4-(((3S,4R)-1-((4-chloro-1,3-dimethyl-1H-pyrazol-5-yl)sulfonyl)-4-hydroxy-4-(hydroxymethyl)pyrrolidin-3-yl)oxy)-2-fluorobenzonitrile] | 100 to 1000 nM
20 | O=S(=O)(c1ccc(C(F)(F)F)cc1F)N1C[C@H](Oc2ccc3nonc3c2)[C@](O)(CO)C1 [Example 125, (3R,4S)-4-(benzo[c][1,2,5]oxadiazol-5-yloxy)-1-((2-fluoro-4-(trifluoromethyl)phenyl)sulfonyl)-3-(hydroxymethyl)pyrrolidin-3-ol] | 10 to 100 nM
21 | N#Cc1ccc(O[C@H]2CN(S(=O)(=O)c3ccc(OC(F)F)nc3)C[C@@]2(O)CO)cc1F [Example 126, 4-(((3S,4R)-1-((6-(difluoromethoxy)pyridin-3-yl)sulfonyl)-4-hydroxy-4-(hydroxymethyl)pyrrolidin-3-yl)oxy)-2-fluorobenzonitrile] | 100 to 1000 nM
22 | N#Cc1ccc(O[C@H]2CN(S(=O)(=O)c3ccc(OC(F)(F)F)cn3)C[C@@]2(O)CO)cc1F [Example 127, 2-fluoro-4-(((3S,4R)-4-hydroxy-4-(hydroxymethyl)-1-((5-(trifluoromethoxy)pyridin-2-yl)sulfonyl)pyrrolidin-3-yl)oxy)benzonitrile] | 100 to 1000 nM
23 | N#Cc1ccc(O[C@H]2CN(S(=O)(=O)c3cnc(C(F)(F)F)nc3)C[C@@]2(O)CO)cc1F [Example 128, 2-fluoro-4-(((3S,4R)-4-hydroxy-4-(hydroxymethyl)-1-((2-(trifluoromethyl)pyrimidin-5-yl)sulfonyl)pyrrolidin-3-yl)oxy)benzonitrile] | 100 to 1000 nM
